Data reported in patent US4401827A, “Novel acyl-derivatives of carnitine and process for their preparation” (Sigma-Tau, priority 1978, dated 1983).
Read-outs that look alike come from different tables or passages of the source.

How the values were obtained:
rat's ventricle strip = experiment: antiarrhythmic effect, isolated rat ventricle strip test; settings: for antiarrhythmic properties (in words): isolated rat ventricle method; for inhibition at 1 µM / activation at 1 µM: Rattus norvegicus, concentration 1·10^-6 M; for inhibition at 1 µM: decrease; for activation at 1 µM: increase
Text: (2) M. Libonati and G. Segre, Archivio Italiano di Scienze Farmacologiche. Serie XIII, Vol. X, pag. 3, (1960)
effect of some acyl derivatives (concentration 1 · 10^-6
of the formula (1) on the rat's ventricle strip test.
% variation versus basal value.

rabbit hearts = experiment: cardiokinetic effect on isolated rabbit heart (Langendorff) after anoxia; settings: equal concentrations in perfusion fluid, Student's t test versus controls
Description: The cardiokinetic effect on isolated heart was also investigated as follows. Rabbit hearts isolated by the Langendorff method were perfused with oxygenized ringer solution at 38.2° C. The isometric contractions, electrocardiogram and coronary flow were recorded using a "Battaglia-Rangoni" polygraph. By removing the oxygen from the perfusion fluid, metabolic damage was induced in the cardiac muscle, up to an 80% reduction in the cardiac contractile force.
Under these conditions of prolonged anoxia the aerobic glycolysis of the myocardium is slowed down, accompanied by the storage of acid catabolites due to both the accumulation of pyruvic acid and its conversion to lactic acid which cannot be utilized because of the depression of pyridine enzymes, such as LDH (lactodehydrogenase). This has repercussions on the anaerobic glycolysis affecting an ever increasing number of enzymes, accompanied by a progressive and increasingly critical exhaustion of the myocardium. Thus a whole series of cardiac muscle fatigue levels occurs which can be observed by the behavior of the examined parameters, namely the contractile force, coronary flow, heart rate and cardiac rhythm. As soon as the contractile force was reduced by 80%, the perfusion fluid was once again oxygenized either without adding other compounds (controls) or with the addition of the compounds under examination.
Table 2 below gives the percentage values of the contractile force of the heart, showing a positive inotropic effect, calculated after 10 minutes from the interruption of the anoxic period (myocardial restoration).
of some acyl derivatives of formula (I) on the contractile
force of rabbit's heart. (Details are given in the text)

[1] = acute toxicity (tolerance) i.p. in mice, Weil method; settings: mouse, in vivo, ip, Weil method (N = 5, K = 4)
Text: The tolerance of the Acyl-carnitines of the formula (I), as well as their salts administered by intraperitoneal route was investigated in mice using the Weil Method (1).
LD50, mg kg^-1 i.p. in mice,
of some acyl derivatives of formula (1).
Weil method (N = 5, K = 4)

F.F.A. plasma levels = experiment: plasma free fatty acids in 17-hrs fasted rats; assay type: in vivo; settings: single i.p. 500 mg kg^-1, 17-hrs fasted rats
Description: In 17-hrs fasted rats the F.F.A. (fatty-free acids) splasms levels were reduced by a single i.p. administration with 500 mg kg^-s of d,l dipropyl ACAR; l dipropyl ACAR (ACAR=acetylcarnitine); d,l exanoyl CAR (CAR=carnitine) and d,l pyruvyl CAR.
The decrease, compared with untreated animals, was -35%, -29%, -41% and -65% respectively.

[2] = system: plasma cholesterol, triglycerides and lipoproteins in rat; experiment: plasma cholesterol, triglycerides and lipoproteins in rat treated with olive oil; assay type: in vivo; settings: for Lipoproteins, VLDL / Lipoproteins, HDL / Lipoproteins, LDL / cholesterol / triglycerides: olive oil 15 ml kg^-1 orally, compound ip, mean ± SEM, N = 8; for Lipoproteins, VLDL: oil control 15.84 ± 1.53; for Lipoproteins, HDL: oil control 24.18 ± 2.15; for Lipoproteins, LDL: oil control 57.38 ± 2.25; for cholesterol: oil control 88.33 ± 2.96; for triglycerides: oil control 213.66 ± 28.68
Description: In the rats the lipoproteic pattern altered due to an oil administration by gavage, was restored after a single treatment with d,l dipropyl ACAR; d,l ethyl exanoyl CAR; d,l 3 bromopropionyl CAR and d,l pyruvyl CAR.
The effect of some acyl derivatives of formula (I) on plasma cholesterol,
triglycerides and lipoproteins in rat
treated with olive oil, 15 ml kg^-1 orally. Mean Values ± SEM
Student "t" test .quadrature., Δ and indicate respectively a non
significant difference, a P ≤ 1% and 1%.

[3] = system: arrhythmia induced by Aconitine in mice; experiment: arrhythmia induced by Aconitine in mice; assay type: in vivo; settings: for antiarrhythmic activity (in words): Aconitine, mice; for change in vivo at 40 mg/kg / change in vivo at 150 mg/kg: Mus musculus, iv
Description: The antiarrhythmic effect of the compounds was also investigated in mice according to the P. W. Nwangwu, T. Holcslow procedure (4). Using Aconitine (5 mg/ml) as arrhythmogenic agent, the changes in the cardiac rhythm of the animals were recorded and the onset time of initial arrhythmia and/or of ventricular tachycardia were used as End point.
Antiarrhythmic agents display an increase in the latency time of initial ECG change.
(4) P. W. Nvangvu, T. L. Holcslow, Arch. Int. Pharmacodyn. 229, 219 (1977)
on the arrhythmia induced by Aconitine (5 γ/ml) in mice.
% increase of the time to onset of initial cardiac arrythmia

[4] = read-out: maximed frequency (- %), % variation versus basal value
[5] = read-out: whole excitability (- %), % variation versus basal value
[6] = read-out: refractory period (+ %), % variation versus basal value
[7] = read-out: rheobase (+ %), % variation versus basal value
[8] = read-out: latency time increase % of controls, arrhythmias
[9] = read-out: latency time increase % of controls, tachycardia

SMILES	antiarrhythmic properties (in words) (rat's ventricle strip)	positive inotropic effect (in words) (rabbit hearts)	inhibition at 1 µM (rat's ventricle strip; [4]) [%]	inhibition at 1 µM (rat's ventricle strip; [5]) [%]	activation at 1 µM (rat's ventricle strip; [6]) [%]	activation at 1 µM (rat's ventricle strip; [7]) [%]	LD50 [1] [mg/kg]	decrease of F.F.A. plasma levels compared with untreated animals (F.F.A. plasma levels) [%]	other results
CC(C)(C)C(=O)OC(CC(=O)[O-])C[N+](C)(C)C (stereo not shown) [pivaloyl]	most clear out antiarrhythmic properties	greater positive inotropic effect than that of the other compounds under examination	–	–	–	–	–	–	–
CC(=O)C(=O)OC(CC(=O)[O-])C[N+](C)(C)C (racemic) [d,l pyruvyl CAR]	most clear out antiarrhythmic properties	greater positive inotropic effect than that of the other compounds under examination	80.2	95.5	50.2	48.2	3900	-65	Lipoproteins, VLDL [2]: 10.15 ± 1.03%; Lipoproteins, HDL [2]: 33.26 ± 2.17%; Lipoproteins, LDL [2]: 50.15 ± 2.33%; cholesterol [2]: 70.26 ± 2.74 mg/100 ml; triglycerides [2]: 85.14 ± 7.22 mg/100 ml; increase of HDL and decrease of LDL and VLDL (in words) ([2]; rats, single treatment): most marked effect; lipoproteic pattern altered due to oil administration (in words) ([2]; rats, single treatment): restored; triglycerides and cholesterol plasma levels increased after oil (in words) ([2]; rats, single treatment): active against the triglycerides and cholesterol plasma levels; antiarrhythmic activity (in words) [3]: markedly exhibited; change in vivo at 40 mg/kg [3, 8]: 80%; change in vivo at 40 mg/kg [3, 9]: 60%
C[N+](C)(C)CC(CC(=O)[O-])OC(=O)C=Cc1ccccc1 (racemic) [d,l cinnamoyl CAR]	–	greater positive inotropic effect than that of the other compounds under examination	29.8	75.3	40.1	49.6	1120	–	change in vivo at 150 mg/kg [3, 8]: 20%; change in vivo at 150 mg/kg [3, 9]: 8%
CCCC(CCC)C(=O)OC(CC(=O)[O-])C[N+](C)(C)C (stereo not shown) [dipropyl acetyl]	most clear out antiarrhythmic properties	greater positive inotropic effect than that of the other compounds under examination	–	–	–	–	–	–	antiarrhythmic activity (in words) [3]: markedly exhibited
CCCC(CCC)C(=O)OC(CC(=O)[O-])C[N+](C)(C)C (racemic) [d,l dipropyl ACAR]	–	–	23.2	50.6	34.3	24.2	1700	-35	Lipoproteins, VLDL [2]: 13.26 ± 2.03%; Lipoproteins, HDL [2]: 28.13 ± 3.27%; Lipoproteins, LDL [2]: 50.12 ± 2.08%; cholesterol [2]: 75.15 ± 3.11 mg/100 ml; triglycerides [2]: 121.50 ± 11.13 mg/100 ml; lipoproteic pattern altered due to oil administration (in words) ([2]; rats, single treatment): restored; change in vivo at 150 mg/kg [3, 8]: 65%; change in vivo at 150 mg/kg [3, 9]: 55%
CCCCCC(=O)OC(CC(=O)[O-])C[N+](C)(C)C (stereo not shown) [d,l exanoyl CAR]	–	–	–	–	–	–	–	-41	–
CCCC(CCC)C(=O)O[C@H](CC(=O)[O-])C[N+](C)(C)C [l dipropyl ACAR]	–	–	25.3	58.2	39.1	55.1	294	-29	change in vivo at 40 mg/kg [3, 8]: 60%; change in vivo at 40 mg/kg [3, 9]: 40%
